Results from ChEMBL document CHEMBL6109146, “Discovery of New Pyrazolone Carbothioamide Derivatives as Potent Antifungal Agents for the Treatment of Candidiasis and Cryptococcosis” (J Med Chem, 2025).
Values after ≈ are worked out from the molar mass of the structure shown. Active and inactive are the calls of the source. The calls are words filed in the database; no cut-off is given here.

What was measured:
Cryptococcus neoformans [1] = experiment: Induction of morphological changes in Cryptococcus neoformans H99 assessed as vacuole fragmentation at 4 microg/ml incubated for 8 hrs by transmission electron microscopic analysis; format: functional, organism-based; conditions: dose 4.0 µg/ml
Cryptococcus neoformans [2] = experiment: Upregulation of TSA1 gene expression in Cryptococcus neoformans H99 at 4 microg/ml incubated for 8 hrs by qRT-PCR analysis; format: functional; conditions: dose 4.0 µg/ml
Cryptococcus neoformans [3] = experiment: Inhibition of matured biofilm in Cryptococcus neoformans H99 at 2 to 32 microg/ml incubated for 24 hrs by XTT reagent based assay; format: functional, organism-based; conditions: dose 2-32 µg/ml
Nakaseomyces glabratus [4] = experiment: Antifungal activity against Candida glabrata 0161 assessed as inhibition of fungal growth in presence of 10% serum containing transferrin-bound ferric iron and free iron; format: functional, organism-based
Nakaseomyces glabratus [5] = experiment: Fungicidal activity against Candida glabrata 0161 incubated for 48 hrs by time-kill kinetics analysis; format: functional
Nakaseomyces glabratus [6] = experiment: Inhibition of biofilm formation in Candida glabrata 0161 at 2 to 32 microg/ml incubated for 24 hrs by XTT reagent based assay; format: functional, organism-based; conditions: dose 2-32 µg/ml
Candida albicans [7] = experiment: Antifungal activity against Candida albicans SC5314 assessed as inhibition of fungal growth incubated for 48 to 72 hrs by microplate reader analysis; format: functional, organism-based; conditions: time 48-72 hrs
[Candida] auris = Antifungal activity against Candida auris 0030 assessed as inhibition of fungal growth incubated for 48 to 72 hrs by microplate reader analysis; format: functional, organism-based; conditions: Candidozyma auris, time 48-72 hrs
[8] = Tmax in male ICR mouse at 2 mg/kg, iv measured after 24 hrs by LC-MS/MS analysis; format: ADME, organism-based; conditions: in vivo
Cryptococcus neoformans [9] = experiment: Antifungal activity against Cryptococcus neoformans H99 infected in cryptococcosis female ICR mouse model assessed as reduction in fungal burden in brain at 20 mg/kg, po pre-infected with fungi for 3 hrs followed by compound administration and measured after 5 days; format: functional, organism-based; conditions: time 5.0 day
Nakaseomyces glabratus [10] = experiment: Antifungal activity against Candida glabrata 0161 assessed as inhibition of fungal growth at 0.13 microg/ml incubated up to 72 hrs by microplate reader analysis relative to control; format: functional
Candida albicans [11] = experiment: Antifungal activity against Candida albicans 103 assessed as inhibition of fungal growth incubated for 48 to 72 hrs by microplate reader analysis; format: functional, organism-based; conditions: time 48-72 hrs
Cryptococcus neoformans [12] = experiment: Upregulation of CAT1 gene expression in Cryptococcus neoformans H99 at 4 microg/ml incubated for 8 hrs by qRT-PCR analysis; format: functional; conditions: dose 4.0 µg/ml
[13] = AUC (0 to infinity) in male ICR mouse at 2 mg/kg, iv measured after 24 hrs by LC-MS/MS analysis; format: ADME, organism-based; conditions: in vivo
Nakaseomyces glabratus [14] = experiment: Fungistatic activity against Candida glabrata 0161 assessed as inhibition of fungal growth at 0.031 microg/ml incubated up to 72 hrs by microplate reader analysis; format: functional, organism-based; conditions: dose 0.031 µg/ml
[15] = Reduction in intracellular free iron ions level in Cryptococcus neoformans H99 at 4 microg/ml incubated for 24 hrs by absorbance based analysis relative to control; format: functional; set-up: scale not given: the % may be the effect or the level left; conditions: dose 4 µg/ml
Nakaseomyces glabratus [16] = experiment: Antifungal activity against Candida glabrata 0161 assessed as inhibition of fungal growth in presence of Fe(II) ion; format: functional, organism-based
Nakaseomyces glabratus [17] = experiment: Induction of ROS accumulation in Candida glabrata 0161 assessed as increase in intracellular ROS level by measuring intense green fluorescence incubated for 24 hrs by DCFH-DA probe based fluorescence microscopic analysis; format: functional, organism-based
Nakaseomyces glabratus [18] = experiment: Upregulation of TSA1 gene expression in Candida glabrata 0161 incubated for 8 hrs by qRT-PCR analysis; format: functional
[19] = Cytotoxicity against human L02 cells assessed as inhibition of cell proliferation incubated for 48 hrs by WST-8 reagent based assay; format: toxicity
Cryptococcus neoformans [20] = experiment: Fungicidal activity against Cryptococcus neoformans H99 at 32 microg/ml incubated for 72 hrs by time-kill kinetics analysis; format: functional, organism-based; conditions: dose 32.0 µg/ml
Nakaseomyces glabratus [21] = experiment: Inhibition of biofilm formation in Candida glabrata 0161 at 16 to 32 microg/ml incubated for 24 hrs by XTT reagent based assay relative to control; format: functional; conditions: dose 16-32 µg/ml, at 16 to 32 µg/mL
[22] = AUC (0 to t) in male ICR mouse at 20 mg/kg, po measured after 24 hrs by LC-MS/MS analysis; format: ADME, organism-based; conditions: in vivo
Cryptococcus neoformans [23] = experiment: Induction of oxidative damage in Cryptococcus neoformans H99 assessed as increase in MDA level at 4 microg/ml incubated for 24 hrs relative to control; format: functional; conditions: dose 4 µg/ml
[24] = Half-life in male ICR mouse at 20 mg/kg, po measured after 24 hrs by LC-MS/MS analysis; format: ADME, organism-based; conditions: in vivo
Cryptococcus neoformans [25] = experiment: Antifungal activity against Cryptococcus neoformans H99 assessed as inhibition of fungal growth by measuring fold increase in MIC in presence of 10% serum containing transferrin-bound ferric iron and free iron; format: functional
Cryptococcus neoformans [26] = experiment: Induction of morphological changes in Cryptococcus neoformans H99 assessed as mitochondrial lysis at 4 microg/ml incubated for 8 hrs by transmission electron microscopic analysis; format: functional, organism-based; conditions: dose 4.0 µg/ml
Nakaseomyces glabratus [27] = experiment: Antifungal activity against Candida glabrata 0161 assessed as inhibition of fungal growth at <0.0078 microg/ml incubated for 72 hrs by microplate reader analysis; format: functional, organism-based; conditions: dose < 0.0078 µg/ml
Nakaseomyces glabratus [28] = experiment: Antifungal activity against Candida glabrata 0161 assessed as inhibition of fungal growth incubated up to 72 hrs by microplate reader analysis; format: functional, organism-based; conditions: dose 0.13-0.00049 µg/ml
Cryptococcus neoformans [29] = experiment: Inhibition of biofilm formation in Cryptococcus neoformans H99 at 32 microg/ml incubated for 24 hrs by XTT reagent based assay relative to control; format: functional
Nakaseomyces glabratus [30] = experiment: Upregulation of SOD1 gene expression in Candida glabrata 0161 incubated for 8 hrs by qRT-PCR analysis; format: functional
[31] = AUC (0 to infinity) in male ICR mouse at 20 mg/kg, po measured after 24 hrs by LC-MS/MS analysis; format: ADME, organism-based; conditions: in vivo
Candida albicans [32] = experiment: Antifungal activity against Candida albicans 9296 assessed as inhibition of fungal growth incubated for 48 to 72 hrs by microplate reader analysis; format: functional, organism-based; conditions: time 48-72 hrs
Nakaseomyces glabratus [33] = experiment: Antifungal activity against Candida glabrata 0161 infected in candidiasis female ICR mouse model assessed as reduction in fungal burden in kidney at 20 mg/kg, ip pre-infected with fungi for 3 hrs followed by compound administration and measured after 5 days; format: functional; conditions: time 5 day
[34] = Cmax in male ICR mouse at 20 mg/kg, po measured after 24 hrs by LC-MS/MS analysis; format: ADME, organism-based; conditions: in vivo
Cryptococcus neoformans [35] = experiment: Antifungal activity against Cryptococcus neoformans H99 assessed as inhibition of fungal cell colony formation at 0.5 microg/ml incubated for 48 hrs by spot-plating assay; format: functional, organism-based; conditions: dose 0.5 µg/ml
Cryptococcus neoformans [36] = experiment: Antifungal activity against Cryptococcus neoformans H99 assessed as inhibition of fungal growth in presence of 1 to 10 microg/ml Fe(II) ion; format: functional, organism-based
Nakaseomyces glabratus [37] = experiment: Reduction in intracellular free iron ions level in Candida glabrata 0161 incubated for 24 hrs by absorbance based analysis; format: functional
Cryptococcus neoformans [38] = experiment: Upregulation of GPX1 gene expression in Cryptococcus neoformans H99 at 4 microg/ml incubated for 8 hrs by qRT-PCR analysis; format: functional; conditions: dose 4.0 µg/ml
Nakaseomyces glabratus [39] = experiment: Upregulation of GPX1 gene expression in Candida glabrata 0161 incubated for 8 hrs by qRT-PCR analysis; format: functional
[40] = Tmax in male ICR mouse at 20 mg/kg, po measured after 24 hrs by LC-MS/MS analysis; format: ADME, organism-based; conditions: in vivo

Tmax [8]: 4.98 min
AUC(0-inf) [13]: 2100 ng·h/mL
AUC(0-t) at 24 h [22]: 4600 ng·h/mL
half-life [24]: 87.6 min
AUC(0-inf) [31]: 4740 ng·h/mL
Cmax [34]: 1720 ng/mL
Tmax [40]: 15 min
SMILES: Nc1cc(=O)n(C(=S)Nc2ccc(C3CCCCC3)cc2)[nH]1
Activity (Cryptococcus neoformans [1]): Active
Activity (Cryptococcus neoformans [2]): Active
inhibition (Cryptococcus neoformans [3]): Active; Better Inhibitory Effect Observed Under High Concentration
Activity (Nakaseomyces glabratus [4]): inactive
MFC (Nakaseomyces glabratus [5]): 2 µg/mL (≈ 6.32 µM)
inhibition (Nakaseomyces glabratus [6]): Moderate_effect
Activity (Candida albicans [7]): Active
Activity ([Candida] auris): Active
Activity (Cryptococcus neoformans [9]): Active
inhibition at 0.13 µg/mL (Nakaseomyces glabratus [10]): 100%
Activity (Candida albicans [11]): Active
Activity (Cryptococcus neoformans [12]): Active
Activity (Nakaseomyces glabratus [14]): Active; Significantly Better Activity Observed Than Fluconazole At 8 Microg/Ml
Activity [15]: ~80%
Activity (Nakaseomyces glabratus [16]): inactive
Activity (Nakaseomyces glabratus [17]): Active
Activity (Nakaseomyces glabratus [18]): Active
IC50 at 48 h [19]: 13.9 µg/mL (≈ 44 µM)
Activity (Cryptococcus neoformans [20]): inactive
inhibition (INH) (Nakaseomyces glabratus [21]): ~100%
Activity (Cryptococcus neoformans [23]): ~20%
fold change (FC) (Cryptococcus neoformans [25]): ~1000
Activity (Cryptococcus neoformans [26]): Active
Activity (Nakaseomyces glabratus [27]): Not active; Decrease In Inhibitory Potency Observed
Activity (Nakaseomyces glabratus [28]): Dose-dependent-effect
inhibition at 32 µg/mL (Cryptococcus neoformans [29]): 77%
Activity (Nakaseomyces glabratus [30]): Active
Activity (Candida albicans [32]): Active
Activity (Nakaseomyces glabratus [33]): 1.2 log10CFU/g
Activity (Cryptococcus neoformans [35]): Active
Activity (Cryptococcus neoformans [36]): inactive
Activity (Nakaseomyces glabratus [37]): Active
Activity (Cryptococcus neoformans [38]): Active
Activity (Nakaseomyces glabratus [39]): Active
